From patent publication US20240365736A1, “COMPOSITIONS AND METHODS FOR TARGETED DEGRADATION OF PROTEINS IN A PLANT CELL” (Oerth Bio LLC, priority 2021, published 2024)
pKd: −log10 of the molar value. Like-named read-outs stand apart in the source and are kept apart here.

Columns and labels:
[1] = molecular target: plant cereblon (Cereblon ligand binding domain) (Arabidopsis thaliana, UniProt F4ISN3); experiment: Ligand binding affinity by microscale thermophoresis (Monolith), labeled Cereblon ligand binding domain; details: MST, RED-tris-NTA His-tag labeled Cereblon ligand binding domain, 25 nM labeled protein; binding to plant cereblon; read-out: Plant CRBN Kd
Experimental: The binding affinity of the described test compounds was determined using RED-tris-NTA His-tag labeled Cereblon ligand binding domain. The labeling of the Cereblon ligand binding domain was performed according to manufacturer's protocol in assay buffer (50 nM protein: 10 nM dye, 5:1 protein to dye ratio). 200 μM compound in assay buffer (10 mM HEPES pH 7.4, 300 mM NaCl, 0.1% Pluronic-147, 10% Glycerol, 5 mM DTT) was created from 10 mM compound stock in DMSO. A 16-point serial dilution was achieved by taking 10 μL of the 200 μM first well and diluting into 10 μL of assay buffer in the second well, which was diluted in 10 μL assay buffer in the third well, and so on. DMSO content of each well matched to 2%. 10 μL of 50 nM CRBN was added to each well and mixed thoroughly by pipetting. Final assay concentration of 25 nM labeled protein and highest compound concentration of 100 μM, 1% DMSO.
Samples were incubated at room temperature in the dark for five minutes, then collected in standard Monolith capillaries. Assay was performed on the Monolith NT.155Pico using automated excitation level and medium power on M.O. Control software. Analysis of MST traces and determination of dissociation constants and was conducted in M.O. Affinity Analysis software, and the results are shown in Table 2 below.

[2] = Uptake in plant cells: LCMS quantification in treated Abutilon leaves and leaf washings; format: in vivo; details: for concentration at 24 h: Abutilon (plant), topical, 10 μL of 400 μM formulation per leaf
Experimental: Abutilon plants were sown in 3 inch pots and allowed to germinate and reach the two leaf stage. At the two leaf stage, plants were separated into groups of 8 plants and had one of their first true leaves labeled with a black marker. Formulation treatment samples were prepared using the following protocol. All treatment samples were prepared to 400 μM. Just before treatment, samples were emulsified and 10 μL of formulated compound was pipetted onto leaves marked for treatment in small droplets evenly across the leaf surface. Once all leaves were treated, they were allowed to sit undisturbed in a growth chamber for 24 hours. After 24 hours plants were removed from the chamber for sample collection.
Using clean scissors treated leaves were removed from the plants, and washed in 20 mL of LCMS grade acetonitrile. A sample of the wash solution was collected and set aside for analysis. The washed leaves were then stored in 7 mL centrifuge tubes and set aside. 8 treated leaves from a grouping were stored in the same sample tube. The untreated leaves were collected and stored in separate 7 mL tubes. The same was done with new growth.
The samples were stored in a −80° C. freezer for 24 hours before milling. Fresh stock of 80:20 LCMS grade acetonitrile and water was prepared as a milling solution. 3 to 4 ceramic milling beads were added to each tube along with 300 μL of milling solution. Tubes were sealed and put into a benchtop homogenizer. Samples were milled for two 12 second intervals at maximum speed with a 30 second rest period in between. Samples were then moved to a 4° C. centrifuge where they were centrifuged at 15000 rpm for 6 minutes. Supernatant was collected and put into 2 mL microcentrifuge tubes. […]
Samples were run with injections of 10 μL. Data was analyzed and calibration curves were built for known samples, using area under the curve for [M+H]. Unknown concentrations were calculated with the calibration curves to determine the amount of PROTAC® compound present at 24 hours in treated leaves and in the leaf washings.

[3] = test system: Matricaria recutita, Diplotaxis tenuifolia, Agrostis spp., Poa annua, or Arabidopsis thaliana; experiment: Plant phenotyping assay (herbicidal phenotypes, 96-well plates); format: in vivo; details: visual score of herbicidal phenotypes after seven days; 238, 475, 950, and 1900 g ai/ha (50-400 uM); also: key: '+++' is highly active; '++' is moderately active; '+' is weakly active; '−' is inactive
Experimental: Seeds of Matricaria recutita, Diplotaxis tenuifolia, Agrostis spp., Poa annua, or Arabidopsis thaliana were sown into 96-well plates containing 200 μl of growth media [0.5× Murashige and Skoog (MS) basal media (Sigma-Aldrich), 2.5 mM 2-(N-morpholino) ethanesulfonic acid (MES—Sigma-Aldrich), 0.7 g/L Phytagar (Invitrogen); pH 5.7]. Three to five seeds were distributed per well. Plates were placed under fifteen hours of light at 23° C., 65% humidity in a controlled environment growth chamber. After approximately three days, test compounds and controls were mixed with acetone and emulsified with an equal volume of 3% methyl ester of rapeseed oil (Mero), and applied to plants at concentrations of 238, 475, 950, and 1900 g ai/ha (50-400 uM).

Sequence of plant cereblon (Cereblon ligand binding domain) (F4ISN3 1-547): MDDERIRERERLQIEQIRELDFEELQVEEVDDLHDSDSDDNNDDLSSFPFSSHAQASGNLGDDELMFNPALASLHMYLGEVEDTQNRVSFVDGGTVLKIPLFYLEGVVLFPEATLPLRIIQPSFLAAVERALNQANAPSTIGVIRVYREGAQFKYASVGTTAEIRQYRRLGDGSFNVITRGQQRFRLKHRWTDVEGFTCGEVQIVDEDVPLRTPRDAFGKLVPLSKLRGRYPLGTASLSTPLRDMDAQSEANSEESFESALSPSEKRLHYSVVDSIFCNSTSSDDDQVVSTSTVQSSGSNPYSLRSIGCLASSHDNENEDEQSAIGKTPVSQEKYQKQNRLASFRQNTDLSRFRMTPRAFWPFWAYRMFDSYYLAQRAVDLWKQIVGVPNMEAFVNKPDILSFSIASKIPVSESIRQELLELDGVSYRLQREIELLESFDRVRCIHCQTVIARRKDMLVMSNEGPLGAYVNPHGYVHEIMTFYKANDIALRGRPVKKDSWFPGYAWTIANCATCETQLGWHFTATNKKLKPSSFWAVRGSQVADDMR

Row | pKd [1] | SMILES | also measured
1 | 6.00 to 7.00 | COCCNc1cc(CN2CCOCC2)ccc1COc1cccc2c1CN([C@H]1CCC(=O)NC1=O)C2=O [Example 23, (S)-3-(4-((2-((2-methoxyethyl)amino)-4-(morpholinomethyl)-benzyl)oxy)-1-oxoisoindolin-2-yl)piperidine-2,6-dione] | 
2 | 6.00 to 7.00 | COCCNC(=O)C1CCCN(Cc2ccc(COc3cccc4c3CN(C3CCC(=O)NC3=O)C4=O)cc2)C1 [Example 14, 1-(4-(((2-((S)-2,6-dioxopiperidin-3-yl)-1-oxoisoindolin-4-yl)oxy)methyl)benzyl)-N-(2-methoxyethyl)piperidine-3-carboxamide] | 
3 |  | COc1cnc(OC)n2nc(NS(=O)(=O)c3c(OCCOCCOCCOCCOCCOCCOc4ccc5c(c4)C(=O)N(C4CCC(=O)NC4=O)C5=O)cccc3C(F)(F)F)nc12 (stereo not shown) [Compound 4-B, N-(5,8-Dimethoxy-[1,2,4]triazolo[1,5-c]pyrimidin-2-yl)-2-((17-((2-(2,6-dioxopiperidin-3-yl)-1,3-dioxoisoindolin-5-yl)oxy)-3,6,9,12,15-pentaoxaheptadecyl)oxy)-6-(trifluoromethyl)benzenesulfonamide] | concentration at 24 h ([2]; leaf wash (20 mL acetonitrile), wash of treated Abutilon leaves in 20 mL acetonitrile, 24 hours after treatment, read-out: Average Concentration μM (leaf wash)): 0.342 µM; concentration at 24 h ([2]; treated leaves (milled extract supernatant), Abutilon treated leaves, 24 hours after 10 μL of 400 μM formulated compound on leaf, read-out: Average Concentration μM (treated leaves)): 0.491 µM; Uptake by leaves ([2]; Abutilon leaves, 24 hours): effectively taken up by leaves; Plant Activity [3]: +++
4 | < 6.00 | O=C1CCC(N2C(=O)c3ccccc3C2=O)C(=O)N1 (stereo not shown) [Ref 1, Thalidomide, reference compound] | 
5 | 6.00 to 7.00 | COCCNC(=O)c1cc(COc2cccc3c2CN([C@H]2CCC(=O)NC2=O)C3=O)ccc1CN1CCOCC1 [Example 24, (S)-5-(((2-(2,6-dioxopiperidin-3-yl)-1-oxoisoindolin-4-yl)oxy)methyl)-N-(2-methoxyethyl)-2-(morpholinomethyl)benzamide] | 
6 | > 7.00 | COCCOc1cc(OCc2ccc(CN3CCOCC3)cc2)c2c(c1)C(=O)N([C@H]1CCC(=O)NC1=O)C2 [Example 21, (3S)-3-[6-(2-methoxyethoxy)-4-[[4-(morpholinomethyl)-phenyl]methoxy]-1-oxo-isoindolin-2-yl]piperidine-2,6-dione] | 
7 | < 6.00 | Nc1cccc2c1C(=O)N(C1CCC(=O)NC1=O)C2=O (stereo not shown) [Ref 2, Pomalidomide, reference compound] | 
8 | 6.00 to 7.00 | COCCNC(=O)C1CCN(Cc2ccc(COc3cccc4c3CN(C3CCC(=O)NC3=O)C4=O)cc2)C1 [Example 18, 1-(4-(((2-((S)-2,6-dioxopiperidin-3-yl)-1-oxoisoindolin-4-yl)oxy)methyl)benzyl)-N-(2-methoxyethyl)pyrrolidine-3-carboxamide] | 
9 | > 7.00 | COCCOCC1COCCN1Cc1ccc(COc2cccc3c2CN([C@H]2CCC(=O)NC2=O)C3=O)cc1 (stereo partly drawn) [Example 11, (3S)-3-(4-((4-((3-((2-methoxyethoxy)methyl)morpholino)methyl)benzyl)-oxy)-1-oxoisoindolin-2-yl)piperidine-2,6-dione] | 
10 | 6.00 to 7.00 | COCCNC(=O)C1CCN(Cc2ccc(COc3cccc4c3CN([C@H]3CCC(=O)NC3=O)C4=O)cc2)CC1 [Example 16, (S)-1-(4-(((2-(2,6-dioxopiperidin-3-yl)-1-oxoisoindolin-4-yl)oxy)methyl)benzyl)-N-(2-methoxyethyl)piperidine-4-carboxamide] | 
11 | > 7.00 | COCCNc1cc(COc2cccc3c2CN([C@H]2CCC(=O)NC2=O)C3=O)ccc1CN1CCOCC1 [Example 22, (3S)-3-[4-[[3-(2-methoxyethylamino)-4-(morpholinomethyl)-phenyl]methoxy]-1-oxo-isoindolin-2-yl]piperidine-2,6-dione] | 
12 |  | O=C(COc1ccc(Oc2cncc(C(F)(F)F)c2)cc1)NCCCOCCOCCOCCOCCOCCOc1ccc2c(c1)C(=O)N(C1CCC(=O)NC1=O)C2=O (stereo not shown) [Compound 7-C, N-(1-((2-(2,6-dioxopiperidin-3-yl)-1,3-dioxoisoindolin-5-yl)oxy)-3,6,9,12,15-pentaoxaoctadecan-18-yl)-2-(4-((5-(trifluoromethyl)pyridin-3-yl)oxy)phenoxy)acetamide] | Plant Activity [3]: −
13 | 6.00 to 7.00 | COCCNCC1COCCN1Cc1ccc(COc2cccc3c2CN([C@H]2CCC(=O)NC2=O)C3=O)cc1 (stereo partly drawn) [Example 12, (3S)-3-[4-[[4-[[3-[(2-Methoxyethylamino)methyl]morpholin-4-yl]methyl]-phenyl]methoxy]-1-oxo-isoindolin-2-yl]piperidine-2,6-dione] | 
14 |  | COc1cnc(OC)n2nc(NS(=O)(=O)c3c(OC4CCN(CCOCCOCCN5CCN(c6ccc7c(c6)C(=O)N(C6CCC(=O)NC6=O)C7=O)CC5)CC4)cccc3C(F)(F)F)nc12 (stereo not shown) [Compound 4-I, N-(5,8-Dimethoxy-[1,2,4]triazolo[1,5-c]pyrimidin-2-yl)-2-((1-(2-(2-(2-(4-(2-(2,6-dioxopiperidin-3-yl)-1,3-dioxoisoindolin-5-yl)piperazin-1-yl)ethoxy)ethoxy)ethyl)piperidin-4-yl)oxy)-6-(trifluoromethyl)benzenesulfonamide] | Plant Activity [3]: +
15 | 6.00 to 7.00 | COCCOCC1CCN(Cc2ccc(COc3cccc4c3CN([C@H]3CCC(=O)NC3=O)C4=O)cc2)CC1 [Example 20, (S)-3-(4-((4-((4-((2-methoxyethoxy)methyl)piperidin-1-yl)methyl)-benzyl)oxy)-1-oxoisoindolin-2-yl)piperidine-2,6-dione] | 
16 |  | COc1cnc(OC)n2nc(NS(=O)(=O)c3c(OCCOCCOCCOc4ccc5c(c4)C(=O)N(C4CCC(=O)NC4=O)C5=O)cccc3C(F)(F)F)nc12 (stereo not shown) [Compound 4-C, N-(5,8-Dimethoxy-[1,2,4]triazolo[1,5-c]pyrimidin-2-yl)-2-(2-(2-(2-((2-(2,6-dioxopiperidin-3-yl)-1,3-dioxoisoindolin-5-yl)oxy)ethoxy)ethoxy)ethoxy)-6-(trifluoromethyl)benzenesulfonamide] | Plant Activity [3]: +++
